Data as given in patent US20190054035A1, “SELF-ASSEMBLED PEPTIDE NANOFIBERS AND USE THEREOF FOR TARGETED DRUG DELIVERY” (Yissum Research Development Company of the Hebrew …, priority 2017, published 2019).
Entries after “also recorded” stand apart in the source; their conditions may differ. Where a SMILES comes first, the peptide text is derived from it. The star is where a group is joined. Fmoc = O=C(OCC1c2ccccc2-c2ccccc21)*; Cbz = O=C(OCc1ccccc1)*

Legend:
[1] = target: T1, cathepsin B (Homo sapiens, UniProt P07858); assay: Cleavage of substrate peptides by cathepsin B, fragment analysis by LC-MS; assay type: biochemical; conditions: 3 hours at 37° C., pH 5.5, LC-MS fragment analysis
T1 construct: made in house; host or cells: E. coli BL21(DE3)pLysS
Protocol: (§1) Each peptide (1 nmole) was treated with […] cathepsin B or cathepsin L (generated by transformation of E. coli BL21(DE3)pLysS strain with the pET3a/procathepsin B or procathepsin L vectors) or acetate buffer vehicle (50 mM acetate, 5 mM MgCl2, 2 mM DTT, adjusted to pH 5.5) for 3 hours at 37° C. Next, enzymes were precipitated by an hour incubation at −80° C. in 80% cold methanol followed by 10 minutes of 6000 g centrifugation at 4° C. Supernatant volume was reduced to about 15 μl under vacuum, adjusted to a final volume of 30 μl with methanol and analyzed by LCMS equipped with C18 reverse phase.

[2] = target: T2, cathepsin L (Homo sapiens, UniProt P07711); assay: Cleavage of substrate peptides by cathepsin L, fragment analysis by LC-MS; assay type: biochemical; conditions: 3 hours at 37° C., pH 5.5, LC-MS fragment analysis
T2 construct: made in house; host or cells: E. coli BL21(DE3)pLysS
T2 sequence (P07711 18-333 limits assumed): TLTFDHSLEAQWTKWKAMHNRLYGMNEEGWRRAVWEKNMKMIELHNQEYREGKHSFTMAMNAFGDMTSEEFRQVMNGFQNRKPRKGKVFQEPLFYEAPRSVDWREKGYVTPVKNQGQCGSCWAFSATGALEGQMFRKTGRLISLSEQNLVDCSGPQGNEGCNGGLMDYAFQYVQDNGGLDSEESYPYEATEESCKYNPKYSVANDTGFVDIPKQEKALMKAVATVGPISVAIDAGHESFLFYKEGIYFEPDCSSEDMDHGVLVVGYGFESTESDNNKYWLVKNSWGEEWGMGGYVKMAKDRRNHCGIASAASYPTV
Protocol: as §1

[3] = Self-assembly of TPSs into nanofibers, electron microscopy (TEM/SEM); assay type: physicochemical; conditions: for Diameter of TPS nanofibers / self-assembly into ordered nanofibers: TEM; for Diameter of TPS nanofibers: solvent switching DMSO to water; for self-assembly into ordered nanofibers: 5 mg/ml (1 mg/ml TPS8, TPS9)
Protocol: Lyophilized peptides were dissolved in DMSO to a concentration of 100 mg/ml and then diluted in DDW to the indicated final concentration.
Transmission electron microscopy (TEM) analysis was performed by applying 10 μl of samples to a 200 or 400-mesh copper grids covered by carbon-stabilized Formvar film (SPI, West Chester, Pa.). The samples were allowed to adsorb for 2 minutes before excess fluid was blotted off. Samples were negatively stained by depositing 10 μl of 2% uranyl acetate on the grid and allowing it to adsorb for 2 minutes before excess fluid was blotted off. Except the sample in FIG. 9E, all samples were negatively stained. TEM micrographs were recorded using a JEOL 1200EX or JEOL JEM-1400Plus electron microscope operating at different kV.
Scanning Electron Microscopy (SEM) samples were prepared as described above for TEM on a 400-mesh copper grids, without uranyl acetate staining, and viewed using FBI Magellan™ 400L system.

[4] = Kinetics of TPS4 self-assembly by turbidity; assay type: physicochemical; conditions: 0.5, 1 or 2 mg/ml, 37° C., first 5 hours
Protocol: Freshly prepared aliquots of 0.5, 1 or 2 mg/ml of TPS4 were placed in triplicates in a 96-well plate, 100 ul/well. Plate was placed at 37° C. in a Biotek Cytation 3 plate reader (Winooski, Vt., USA) and absorbance at 350 nm was measured every 2 minutes during 5 hours.

[5] = target: T1, cathepsin B; assay: Turbidity analysis of TPS4 nanofiber degradation by cathepsin B; assay type: biochemical; conditions: 0.5, 1 and 2 mg/ml TPS4, 37° C.
Protocol: Turbidity analysis for TPS4 solutions was conducted using triplicates of freshly prepared solutions as described above in a 96 well plate. Aliquots of 1, 2 or 4 mg/ml were allowed to assemble for 4-5 hours at room temperature. Next, 0.064, 0.128 or 0.255 μM of cathepsin B or acetate buffer vehicle were added, diluting the samples to 0.5, 1, and 2 mg/ml, respectively. The plate was placed at 37° C. in a Biotek Synergy HT plate reader (Winooski, Vt., USA) and absorbance was measured for 12 hours as described above. After 24 hours since enzyme addition, a color picture was taken and the turbidity was measured again.

[6] = test system: MDA-MB 231 cells; assay: TPS4 nanofibers cytotoxicity, methylene blue assay; assay type: cell-based, human; conditions: 0.5 mg/ml nanofibers, 24 or 48 hours
Protocol: MDA-MB 231 human breast adenocarcinoma cells were cultured in Dulbecco's modified eagle's medium (DMEM) supplemented with 10% fetal bovine serum (FBS), 1% penicillin and 1% streptomycin in a humidified atmosphere of 5% CO2 at 37° C. One day prior to treatment MDA-MB 231 cells (7×10^3 cells/well) were cultured in a 96-well plate. The media of TPS4 that was assembled in DMEM was removed by centrifugation (14,000 rpm, 4° C.) and the nanofibers were resuspended in DMEM supplemented with 10% […], 1% penicillin and 1% streptomycin. Cells in triplicates were incubated with 0.5 mg/ml of TPS4 nanofibers (final concentration of 0.1% DMSO was kept constant) in growth medium at 37° C. After 24 or 48 hours of treatment, cell survival was determined by standard methylene blue assay.

[7] = test system: 4T1 tumor lysates; assay: Nanofibers degradation by 4T1 tumor lysates; assay type: biochemical, mice
Protocol: (§2) Tissue lysates were prepared as previously described. Assembly of TPS4 in triplicates was performed for 4 hours in acetate buffer as described in FIG. 6B. Next, 100 μg of lysates from 4T1 tumor or muscles, or RIPA vehicle control (1% Tergitol-type NP-40 (nonyl phenoxypolyethoxylethanol), 0.1% SDS, 0.5% sodium deoxycholate) were added in acetate buffer. The absorbance was read at 350 nm after gentle shaking at 37° C. for indicated times using a BioTek plate reader.

[8] = test system: lysates from mice muscles; assay: Nanofibers degradation by mice muscle lysates; assay type: biochemical; conditions: 0.5 mg/ml TPS4, mice muscle lysates, first ten hours
Protocol: as §2

| Number of amino acids removed from each TPS after cathepsin treatment, Cat B [1] | Number of amino acids removed from each TPS after cathepsin treatment, Cat L [2] | Diameter of TPS nanofibers [3] | Compound | other results |
| --- | --- | --- | --- | --- |
| 2 | 2 | 24 ± 6 nm | NCCCC[C@H](NC(=O)[C@H](Cc1ccccc1)NC(=O)[C@H](Cc1ccccc1)NC(=O)OCc1ccccc1)C(=O)N[C@@H](Cc1ccccc1)C(=O)O [TPS4, Cbz-FFKF-OH] (Cbz-FFKF-OH) | time to form fibers upon assembly initiation ([3]; microscopic examination (data not shown)): instantly formed fibers; increase in turbidity (absorbance at 350 nm) during self-assembly [4]: up to 2.8±0.6 folds; degradation of assembled nanofibers by cathepsin B (turbidity at 350 nm) [5]: significant and robust degradation; cytotoxicity / growth inhibition [6]: no growth inhibition; also recorded: no cytotoxicity; nanofiber degradation over time ([7]; 0.5 mg/ml TPS4, 4T1 tumor lysates, turbidity at 350 nm): degraded the majority of TPS4 nanofibers within two hours; remaining nanofibers relative to vehicle (absorbance at 350 nm) ([7]; overnight lysate treatment, all concentrations tested): less than 20%; nanofiber degradation at the lowest concentration ([7]; overnight lysate treatment, lowest TPS4 concentration): full degradation; nanofiber degradation over time [8]: limited effect |
| 1 | 2 |  | Ac-FFKF-amide [TPS7] | self-assembly into ordered nanofibers [3]: excluding |
|  | 2 | 30 ± 6 nm | Cbz-FFKF-NH2 [TPS8] |  |
|  |  | 13 ± 4 nm | Fmoc-FFKF-NH2 [TPS9] |  |
| 1 | 1 | 66 ± 13 nm | Fmoc-Phe-Lys-Phe-NH2 [TPS5] |  |
| 1 | 2 |  | NH2-FFKF-amide [TPS6] | self-assembly into ordered nanofibers [3]: excluding |

| Compound | Number of amino acids removed from each TPS after cathepsin treatment, Cat B [1] | Number of amino acids removed from each TPS after cathepsin treatment, Cat L [2] | Diameter of TPS nanofibers [3] | other results |
| --- | --- | --- | --- | --- |
| Ac-FFKF-OH [TPS2] | 2 | 2 | 12 ± 1 nm |  |
| Fmoc-FFKF-OH (SMILES NCCCC[C@H](NC(=O)[C@H](Cc1ccccc1)NC(=O)[C@H](Cc1ccccc1)NC(=O)OCC1c2ccccc2-c2ccccc21)C(=O)N[C@@H](Cc1ccccc1)C(=O)O) [TPS3] |  | 2 | 14 ± 2 nm |  |
| NH2-FFKF-OH (H-FFKF-OH) [TPS1] | 1 | 2 | 310 ± 80 nm |  |
